{"source": "patent US20150148324A1", "about": "(VALPHARMA INTERNATIONAL S.P.A., priority 2012, published 2015)", "origin": "cited, not measured here", "test_system": "uterine fibroma", "conditions": "daily oral 5 mg for 6 months, versus higher doses", "data": [{"smiles": "CC#C[C@]1(O)CC[C@H]2[C@@H]3CCC4=CC(=O)CCC4=C3[C@@H](c3ccc(N(C)C)cc3)C[C@@]21C", "note": "[Mifepristone]", "values": [{"measurement": "effect in the treatment of uterine fibroma", "result": "effects comparable with those of higher doses of Mifepristone"}]}]}
